Assay results reported in PubChem BioAssay AID2842 (Southern Research Institute, 2010).
In brackets after ≈: the same amount, converted by molar mass.

tested on: M. tuberculosis H37Rv growth inhibition; test: Mycobacterium tuberculosis H37Rv growth inhibition, putative kinase inhibitor library, confirmatory dose response (AID 2842);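 note: bacteria incubated one week before Alamar blue readout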

Point of comparison: CC1=C(C(=O)Nc2cccc(Cl)c2)C(c2ccc(Br)cc2)NC(=O)N1 (configuration not stated), IC90 20.3 µg/mL (≈ 48.1 µM). Against it:
- CCN1CCc2c(sc(NC(=O)c3ccccc3)c2-c2nc3ccccc3s2)C1 — 28-fold lower, 0.73 µg/mL (≈ 1.74 µM)
- C=CCOC(=O)C1=C(C)NC(SCC(=O)OCC)=C(C#N)C1c1cccs1 (configuration not stated) — 4.6-fold lower, 4.44 µg/mL (≈ 11 µM)
- O=C(Nc1nnc(-c2ccc(Cl)s2)o1)c1c(F)cccc1F — 5.3-fold lower, 3.8 µg/mL (≈ 11.1 µM)
- CCOC(=O)N1CCc2c(sc(NC(=O)c3nc4ccccc4s3)c2C(N)=O)C1 — 5.8-fold lower, 3.48 µg/mL (≈ 8.08 µM)
- Cc1cc(C)c2nc(NNC(=O)c3ccc(F)cc3)sc2c1 — 5.1-fold lower, 3.98 µg/mL (≈ 12.6 µM)
- CC(C)c1cc(-c2nc(-c3ccccc3)no2)n[nH]1 — 1.6-fold lower, 12.7 µg/mL (≈ 49.9 µM)
- COc1ccc2nc(Nc3nc4c(F)cccc4s3)sc2c1 — within 1.5-fold, 23.4 µg/mL (≈ 70.8 µM)
- COc1ccc(Cl)c2sc(N(CCCn3ccnc3)C(=O)Cc3ccccc3)nc12 — 12-fold lower, 1.65 µg/mL (≈ 3.74 µM)
- CN1CCc2c(sc(NC(=O)c3ccc(C(C)(C)C)cc3)c2C(N)=O)C1 — 1.6-fold lower, 12.7 µg/mL (≈ 34.2 µM)
- COc1ccccc1C(=O)Nc1nnc(-c2ccccc2Cl)o1 — 6.3-fold lower, 3.23 µg/mL (≈ 9.8 µM)
- COc1cc(C(=O)Nc2nnc(-c3ccc(C)cc3C)o2)cc(OC)c1OC — 8-fold lower, 2.53 µg/mL (≈ 6.6 µM)
- O=C(Nc1nnc(-c2ccc(F)cc2)o1)c1ccc(Cl)cc1 — within 1.5-fold, 18.3 µg/mL (≈ 57.5 µM)
- Cc1ccc(-c2csc(Nc3nc4cc5c(cc4s3)OCO5)n2)o1 — within 1.5-fold, 26.6 µg/mL (≈ 74.5 µM)
- Cc1ccc(N2C(=O)C(Cl)=C(Nc3cc(Cl)ccc3O)C2=O)cc1 — within 1.5-fold, 25.4 µg/mL (≈ 69.8 µM)
- O=C(Nc1nnc(-c2ccc(F)cc2)o1)c1sc2ccccc2c1Cl — 2.1-fold lower, 9.54 µg/mL (≈ 25.5 µM)
- Cc1ccccc1NCCCn1c(C)cn2c3c(=O)[nH]c(=O)n(C)c3nc12 — within 1.5-fold, 15.4 µg/mL (≈ 41.9 µM)
- COc1ccccc1Cn1cc2c(-c3ccccc3)nnc-2c2cc(OC)c(OC)cc21 — 2.7-fold lower, 7.59 µg/mL (≈ 17.8 µM)
- Cc1ccc(C)c(-c2nnc(NC(=O)c3ccc(Br)s3)o2)c1 — 3-fold lower, 6.75 µg/mL (≈ 17.8 µM)
- COc1ccc(-c2nnc3c4cc(OC)c(OC)cc4n(Cc4ccccc4)cc2-3)cc1 — 1.8-fold lower, 11 µg/mL (≈ 25.8 µM)
- O=C(Nc1nnc(-c2cccs2)o1)C1CCCCC1 — within 1.5-fold, 26.9 µg/mL (≈ 97.1 µM)
- COC(=O)c1c(C)oc2ccc(OCC(=O)OC(C)C)cc12 — 2.9-fold lower, 7.05 µg/mL (≈ 23 µM)
- CC(O)CNc1ncnc2c1cnn2-c1ccc(Cl)c(Cl)c1 (configuration not stated) — 1.6-fold lower, 12.5 µg/mL (≈ 37 µM)
- CCN(CC)S(=O)(=O)c1ccc(C(=O)Nc2nnc(-c3cc(C)ccc3C)o2)cc1 — 1.5-fold lower, 13.1 µg/mL (≈ 30.5 µM)
- COc1cccc(C(=O)Nc2nc(-c3cccs3)cs2)c1 — within 1.5-fold, 19.5 µg/mL (≈ 61.5 µM)
- Cc1nc2c(ccc3nc(NC(=O)c4ccc(C(C)(C)C)cc4)sc32)s1 — 6.3-fold lower, 3.24 µg/mL (≈ 8.49 µM)
- O=C(Nc1nnc(-c2cccs2)o1)c1ccc2c(c1)CCCC2 — 1.9-fold higher, 37.6 µg/mL (≈ 116 µM)
- O=C(Nc1nnc(-c2ccc(Br)cc2)o1)C1COc2ccccc2O1 (configuration not stated) — 2.8-fold lower, 7.27 µg/mL (≈ 18.1 µM)
- COc1ccc2nc(Nc3nc4c(OC)cccc4s3)sc2c1 — 6-fold lower, 3.38 µg/mL (≈ 9.84 µM)
- CN(C)S(=O)(=O)c1ccc(C(=O)Nc2nnc(-c3ccc(Br)cc3)o2)cc1 — 3-fold lower, 6.69 µg/mL (≈ 14.8 µM)
- O=C(Nc1nnc(-c2ccc3c(c2)CCCC3)o1)C1CCCCC1 — 2-fold higher, 40.2 µg/mL (≈ 124 µM)
- CCOc1ccc2nc(N(CCCn3ccnc3)C(=O)c3ccc(F)cc3)sc2c1 — 2.6-fold lower, 7.77 µg/mL (≈ 18.3 µM)
- O=C(OC1CCCCC1)c1cc2ccccc2oc1=O — 2.4-fold higher, 49 µg/mL (≈ 180 µM)
- COc1ccc2nc(Nc3nc4c(s3)CCCC4)sc2c1 — within 1.5-fold, 20.7 µg/mL (≈ 65.1 µM)
- c1csc(Nc2nc3cc4c(cc3s2)OCO4)n1 — 2.4-fold lower, 8.57 µg/mL (≈ 30.9 µM)
- COc1cc2c3nnc(-c4ccc(C)c(C)c4)c-3cn(Cc3ccccc3)c2cc1OC — 2.8-fold lower, 7.35 µg/mL (≈ 17.4 µM)
- CCCCOc1cccc(C(=O)Nc2nnc(-c3cc(C)ccc3C)o2)c1 — 1.6-fold lower, 12.4 µg/mL (≈ 33.9 µM)
- CN(C)c1ccc(C(=O)Nc2nnc(C3=COCCO3)o2)cc1 — 2.3-fold lower, 9.01 µg/mL (≈ 28.5 µM)
- CC1CCN(S(=O)(=O)c2ccc(C(=O)Nc3nnc(-c4cc(Cl)ccc4Cl)o3)cc2)CC1 — 1.7-fold higher, 35.4 µg/mL (≈ 71.5 µM)
- Cc1ccc(-n2ccnc(NCC(C)c3ccccc3)c2=O)cc1C (configuration not stated) — within 1.5-fold, 18.1 µg/mL (≈ 54.4 µM)
- Cc1cc(NCCCn2ccnc2)n2ncc(-c3ccccc3)c2n1 — 6.5-fold lower, 3.12 µg/mL (≈ 9.39 µM)
- Cc1cccc(C(=O)Nc2nnc(C3=COCCO3)o2)c1 — 6-fold lower, 3.36 µg/mL (≈ 11.7 µM)
- O=C(Nc1nnc(-c2ccc3c(c2)CCCC3)o1)c1c(F)cccc1F — 4.5-fold lower, 4.5 µg/mL (≈ 12.7 µM)
- Fc1ccc2nc(Nc3nc(-c4ccc(Cl)s4)cs3)sc2c1 — 2.6-fold lower, 7.87 µg/mL (≈ 21.4 µM)
- COc1ccc2nc(NNC(=O)c3cc4ccccc4oc3=O)sc2c1 — 1.5-fold higher, 30.8 µg/mL (≈ 83.8 µM)
- COc1cc(OC)cc(C(=O)Nc2nnc(-c3cccc(SC)c3)o2)c1 — 1.6-fold lower, 12.4 µg/mL (≈ 33.5 µM)
- Cc1ccc(Cl)cc1N1CCN(CC(O)COc2ccccc2[N+](=O)[O-])CC1 (configuration not stated) — 1.6-fold lower, 13 µg/mL (≈ 32.1 µM)
- N/C(=N\OC(=O)c1ccccc1F)c1ccccn1 — within 1.5-fold, 18.7 µg/mL (≈ 72.2 µM)
- CCSc1ccc(C(=O)Nc2nnc(-c3ccco3)o2)cc1 — 29-fold lower, 0.71 µg/mL (≈ 2.25 µM)
- C=CCn1c(=NC(=O)c2ccc([N+](=O)[O-])s2)sc2cc(S(N)(=O)=O)ccc21 — lower, < 0.2 µg/mL
- C=CCOC(=O)COc1ccc2cc(-c3ccc(OC)cc3)c(=O)oc2c1 — 5.7-fold lower, 3.58 µg/mL (≈ 9.77 µM)
- O=C(CS(=O)(=O)c1ccccc1)Nc1nc(-c2ccc3c(c2)CCCC3)cs1 — 20-fold lower, 1.02 µg/mL (≈ 2.47 µM)
- CC(=O)N1CCc2c(sc(NC(=O)c3ccccc3Oc3ccccc3)c2C(N)=O)C1 — within 1.5-fold, 18.3 µg/mL (≈ 42 µM)
- CS(=O)(=O)Nc1cccc(C2=NN(c3nc(-c4ccccc4)c4cc(Cl)ccc4n3)C(c3ccco3)C2)c1 (configuration not stated) — 14-fold lower, 1.42 µg/mL (≈ 2.61 µM)
- O=C(Cc1cccc2ccccc12)Nc1nnc(-c2cccs2)o1 — 2-fold higher, 40.1 µg/mL (≈ 120 µM)
- O=C(/C=C/c1cccs1)N(CCCn1ccnc1)c1nc2ccccc2s1 — 14-fold lower, 1.43 µg/mL (≈ 3.62 µM)
- COc1cc(Br)cc(/C=N/Nc2nc(=O)[nH]nc2C)c1O — lower, < 0.2 µg/mL
